Assay results from PubChem BioAssay (NCI).
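Growth conditions: 96-well plates. Treatment: test compound, 48 hours, 5 concentrations. Analysis: linear interpolation between bracketing concentrations; unreached endpoints set to highest concentration. The concentration for full growth arrest is given as TGI.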

Key:
Assay in all cases: NCI anticancer screen, dose series, 48 h
HL-60(TB) leukemia = tested on: HL-60(TB) leukemia
HOP-62 NSCLC = tested on: HOP-62 NSCLC
HT29 colon = tested on: HT29 colon
M14 melanoma = tested on: M14 melanoma
NCI-H23 lung = tested on: NCI-H23 lung
OVCAR-8 ovarian = tested on: OVCAR-8 ovarian
SF-539 CNS = tested on: SF-539 CNS
SK-MEL-2 melanoma = tested on: SK-MEL-2 melanoma
SK-MEL-28 melanoma = tested on: SK-MEL-28 melanoma
SN12C renal = tested on: SN12C renal
SW-620 colon = tested on: SW-620 colon
A498 renal = tested on: A498 renal
RXF 393 renal = tested on: RXF 393 renal
HCT-15 colon = tested on: HCT-15 colon

Row | Compound | TGI (HL-60(TB) leukemia) | TGI (HOP-62 NSCLC) | TGI (HT29 colon) | TGI (M14 melanoma) | TGI (NCI-H23 lung) | TGI (OVCAR-8 ovarian) | TGI (SF-539 CNS) | TGI (SK-MEL-2 melanoma) | TGI (SK-MEL-28 melanoma) | TGI (SN12C renal) | TGI (SW-620 colon) | TGI (A498 renal) | TGI (RXF 393 renal) | TGI (HCT-15 colon)
1 | Cc1ccc(S(=O)(=O)NC(=O)C2S(=O)(=O)OCCOS2(=O)=O)cc1 | > 100 µM | > 100 µM | > 100 µM | > 100 µM | > 100 µM | > 100 µM | > 100 µM | > 100 µM | > 100 µM | > 100 µM | > 100 µM |  |  | 
2 | CCC(=O)OC1CCn2c1nc1c2C(=O)C(C)=C(NC(C)=O)C1=O (stereo not given) | 3.89 µM | 24.1 µM | 3.59 µM | 3.32 µM | 3.49 µM | 2.09 µM | 3.21 µM | 3.41 µM | 3.76 µM | 3.19 µM | 2.93 µM | 32.5 µM | 3.11 µM | 
3 | Nc1cn(C2OC(CC(c3ccccc3)(c3ccccc3)c3ccccc3)C(O)C2O)c(=O)[nH]c1=O (stereo not given) | 36.9 µM | 63.1 µM | 58.8 µM | 48.6 µM | 65.8 µM | 89.6 µM |  | > 100 µM | 81.7 µM | 49.4 µM | 28 µM | 95.5 µM | 21.4 µM | 33.3 µM
4 | CC(C)OP(=O)(OC(C)C)C(=NCCO)NNc1ccc([N+](=O)[O-])cc1 | > 100 µM | > 100 µM |  | > 100 µM | > 100 µM | > 100 µM | > 100 µM | > 100 µM | > 100 µM | > 100 µM | > 100 µM | > 100 µM |  | > 100 µM
5 | CC1CC(=O)Nc2ccc(Cl)cc2N1C(=O)CN1CCC(CCCCN(C)C)CC1 (stereo not given) | > 100 µM | > 100 µM | > 100 µM | > 100 µM | > 100 µM | > 100 µM |  |  | > 100 µM | > 100 µM | > 100 µM | > 100 µM |  | > 100 µM
6 | NC(CCSCC(F)(F)F)C(=O)O (stereo not given) | > 100 µM | > 100 µM | > 100 µM | > 100 µM | > 100 µM | > 100 µM | > 100 µM |  | > 100 µM | > 100 µM | > 100 µM | > 100 µM | > 100 µM | > 100 µM
7 | O=C(Nc1cccc(C(F)(F)F)c1)C(=O)C(C(=O)c1ccc(Cl)c(Cl)c1)C1OC(=O)c2ccccc21 (stereo not given) | > 100 µM | > 100 µM | > 100 µM | > 100 µM | > 100 µM | > 100 µM |  |  |  | > 100 µM | > 100 µM | 79.8 µM | 41.7 µM | > 100 µM
8 | O=C1NC(=O)C(C(=O)C(=O)Nc2cc(Cl)ccc2Cl)C(=O)N1 | > 100 µM | > 100 µM |  | > 100 µM | > 100 µM | > 100 µM | > 100 µM | > 100 µM | > 100 µM |  | > 100 µM | > 100 µM | > 100 µM | > 100 µM
9 | Cc1ccc2nc(NC(=O)C(=O)C(C(=O)c3ccc4ccccc4c3)C3OC(=O)c4ccccc43)sc2c1 (stereo not given) |  | 26.6 µM | 31.3 µM | 28.2 µM | 18.3 µM | 62.1 µM | 9.21 µM | 29.3 µM | 19.3 µM | 31.6 µM | 22.9 µM | 21.3 µM | 8.79 µM | 
10 | CCN(CC)CC1CCCCN1CC(=O)N1c2cc(Cl)ccc2NC(=O)CC1C (stereo not given) | > 100 µM | > 100 µM |  | > 100 µM | > 100 µM | > 100 µM | > 100 µM | > 100 µM | > 100 µM | > 100 µM | > 100 µM | > 100 µM |  | 
11 | C/C(=N\Nc1ccccc1)c1sc(-c2nc(C)c(/C(C)=N/Nc3ccccc3)s2)nc1C | > 100 µM |  | 26.2 µM | 25 µM | > 100 µM | > 100 µM | > 37.7 µM | > 100 µM | > 85.8 µM | > 100 µM | > 35.2 µM | > 100 µM | > 87.9 µM | > 20.2 µM
12 | CC(=O)NNc1nc(C)c(C(=O)NNC(=O)C(=O)Nc2ccc(Cl)c([N+](=O)[O-])c2)s1 | > 100 µM | > 100 µM | > 100 µM | > 100 µM | > 100 µM | > 100 µM | > 100 µM | > 100 µM | > 100 µM | > 100 µM | > 100 µM |  |  | > 100 µM
13 | N#C/C(=C\c1ccc(O)c(O)c1)c1c(C#N)c(N)nn1-c1ccccc1 | 32.7 µM | 40.8 µM | 65.8 µM | 31.9 µM | 25.3 µM | 29.2 µM | 18.9 µM | 49.8 µM | > 100 µM | 39.4 µM | > 100 µM | 9.63 µM |  | 36.8 µM
14 | COC1(OC)CC2C(=O)N(Cc3ccccc3)C1C(S(=O)(=O)c1ccccc1)C2C(C)S(=O)(=O)c1ccccc1 (stereo not given) | > 100 µM | > 100 µM | > 100 µM | > 100 µM | > 100 µM | > 100 µM | > 100 µM | > 100 µM | > 100 µM | > 100 µM | > 100 µM |  | > 100 µM | > 100 µM
15 | O=C(Nc1ccccc1[N+](=O)[O-])/C(=N/Nc1cccc(Cl)c1)c1c(O)c2ccccc2oc1=O |  |  | > 100 µM | > 100 µM | > 100 µM |  | > 100 µM | > 100 µM | > 100 µM |  | > 100 µM | > 100 µM | > 100 µM | > 100 µM
